Data set [1] deals with Lemna minor. Nature of the data set: Lemna minor growth inhibition assay (OECD Test No. 221). The format is in vivo. The conditions noted are these: for aquatic toxicity category according to U.S. EPA: based on the calculated EC50 values against Lemna minor. The method, then: Four types of polymers were tested, namely low- (ChiS), medium- (ChiM) and high- (ChiL) molecular-weight chitosan and chitosan with a degree of deacetylation of approximately 50% (Chi50). The chitosan samples were tested in three concentrations (50 mg/L, 500 mg/L and 5000 mg/L) and were obtained by dissolving the polymers in 0.3% acetic acid, followed by dilution with culture medium in a 1:2 ratio.
Four types of chitooligosaccharides were tested: D-glucosamine hydrochloride (G), N-acetyl-D-glucosamine (NAG or A), chitobiose dihydrochloride (2G), and carboxymethyl chitosan (CMChi). Three chitooligosaccharides (G, NAG, 2G) were tested in three concentrations: 5 mg/L, 50 mg/L and 250 mg/L, being dissolved directly into L. minor culture medium. CMChi was tested in four concentrations (50 mg/L, 250 mg/L, 500 mg/L and 5000 mg/L) and the solutions were prepared by dissolving the polymer directly in L. minor culture medium.
Lemna minor, the common duckweed, was used as a test organism for the assessment of growth response of the tested chitosan samples and chitooligosaccharides through a growth inhibition assay. Standard conditions as described in OECD guideline were maintained during both L. minor culture and growth inhibition assay.
The effects of the chitosan samples and the chitooligosaccharides were tested using a number of 10 fronds per test vessel, with an exposure period of 7 days. In the same conditions, two controls were tested: a negative control (C−), represented by culture medium, and a positive control (C+), represented by 0.5% zinc chloride. All samples and controls were tested in triplicate.
The endpoints of the growth inhibition test were represented by number of fronds, which was used for the plotting of dose–response curves and the calculation of half maximal effective concentration (EC50). The tested samples were classified into aquatic ecotoxicity categories according to U.S. EPA [47] based on the calculated EC50 values: very highly toxic (<0.1 mg/L), highly toxic (>0.1–1 mg/L), moderately toxic (>1–10 mg/L), slightly toxic (>10–100 mg/L) and practically non-toxic (>100 mg/L).
PAST software was used for the statistical analysis of data, with Quest Graph™ EC50 Calculator [65] being used for the calculation of EC50 values. The Shapiro–Wilk W test was used for assessing the normality of the data, with the distribution analysis being followed by an ANOVA analysis. The normally distributed data were analyzed with parametric tests, the homogeneity of variance among treatments was determined through Levene’s test, with Tuckey’s post hoc test being used for the analysis of variances. The non-normally distributed data were analyzed with the Kruskal–Wallis test, variances being further analyzed using Dunn’s post hoc test. The Pearson linear r correlation test was used for all correlation analysis. The differences were considered significant for p values < 0.05.

Data set [2] deals with Lemna gibba. Further details: method as in PMID 16666961. To be noted: D-glucosamine 50 mM, ref [49]; cited from earlier work.
In data set [3] the test system is Lemna trisulca. Also on record: method as in PMID 17074410. The conditions noted are these: ref [48], cited from earlier work.
Setting [4] is: number of fronds, exposure period of 7 days.

Converted amounts (≈) assume the structure as drawn. Counter-ions that a name gives are not always drawn.

One may read the EC50 as the midpoint of the concentration-response curve.

Consider `N[C@H]1C(O)O[C@H](CO)[C@@H](O)[C@@H]1O` (stereo partly drawn) [G, D-glucosamine hydrochloride], for which the EC50 in data set [1] (Lemna minor, 168 h, number of fronds, exposure period of 7 days, read-out: EC50 against Lemna minor) came out at 11.6 µg/mL. Further, the “aquatic toxicity category according to U.S. EPA” value in data set [1] is listed as “slightly toxic (slightly toxic (>10–100 mg/L))”.
For `N[C@H]1C(O)O[C@H](CO)[C@@H](O)[C@@H]1O` (stereo partly drawn) [D, D-glucosamine], the “inhibition of the respiration rate” value in data set [2] is given as 30%. The “level of zeaxanthin and antheraxanthin, times higher than the control” value in data set [3] (Lemna trisulca) is reported as “approximately 30 times”. Also, in data set [3] (even at a concentration of 0.01%), the “inhibition of violaxanthin synthesis from zeaxanthin and antheraxanthin” value is recorded as “induced the inhibition”.
On to `Cl.N[C@H]1[C@H](O[C@H]2[C@H](O)[C@@H](N)C(O)O[C@@H]2CO)O[C@H](CO)[C@@H](O)[C@@H]1O` (some centres unmarked) [2G, chitobiose dihydrochloride], for which the “EC50 against Lemna minor” value in data set [1] (setting [4]) turned out to be 266.36 µg/mL.
For the molecule `CC(=O)N[C@@H]1[C@@H](O)[C@H](O)[C@@H](CO)O[C@@H]1O` [A, N-acetyl-D-glucosamine], the “aquatic toxicity category according to U.S. EPA” value in data set [1] is reported as “practically non-toxic (practically non-toxic (>100 mg/L))”. Also, the “EC50 against Lemna minor” value in data set [1] (setting [4]) was 678.22 µg/mL (≈ 3.07 mM).

Source of the values: publication PMC9502776, “Assessment of the Effects of Chitosan, Chitooligosaccharides and Their Derivatives on Lemna minor” (Molecules, 2022).
